Where two headings read alike, the source gives them in different places.
Target: T1, N-type Ca^2+ Channel (Homo sapiens, UniProt Q00975)
T1 construct: host or cells: IMR-32 cells differentiated with dibutyryl cAMP and bromodeoxyuridine
Assay: Measurement of N-type Ca2+ channel blocking potencies in IMR-32 cells using the fluorescent Ca2+ indicator Indo-1
Format: cell-based
Settings: IMR-32 cells
Description: Measurement of N-type Ca^2+ Channel Blocking Potencies of Compounds in IMR-32 Cells Using the Fluorescent Ca^2 + Indicator Indo-1
IMR-32 cells are a human tumoral cell line of neural origin. […] Calcium flux into these cells may be induced by stimulation with elevated potassium concentrations. The L-channel component of calcium flux may be blocked by adding 5 μM nitrendipine. The remaining component of calcium entry into the IMR-32 cells is due to calcium flux through N-type calcium channels. Intracellular calcium concentrations are measured using the fluorescent calcium indicator Indo-1. The effect of drug concentration on calcium uptake is studied.
The IMR-32 cell line was obtained from the American Type Culture Collection (Rockville, Md.). Cells were grown in Eagle's Minimum Essential Medium with Earle's salts supplemented with 10% fetal bovine serum, 2 mM L-Gln and antibiotic/antimycotic mixture (Gibco). At approximately 80% confluency, differentiation was induced by the addition of 1 mM dibutyryl cAMP and 2.5 μM bromodeoxyuridine to the medium. After 7 to 13 days of differentiation, cells were detached using 0.5 mM EDTA and loaded with 5 μM Indo-1 acetoxymethyl ester (Molecular Probes, Eugene, Oreg.) at 30° C. for 45 minutes. Loaded cells were washed twice, resuspended (~10^7 cells/mL) in assay buffer (10 mM HEPES/Tris pH 7.4 in Hank's Balanced Salt Solution without bicarbonate or phenol red containing 0.5% bovine serum albumin) and kept on ice until use. Fluorescence measurements were carried out in a Photon Technology International (PTI, South Brunswick, N.J.) Model RF-F3004 spectrofluorometer with dual emission monochromators using excitation at 350 nm and emission at 400 and 490 nm. The instrument was equipped with a thermostated cuvette holder with stirring capabilities as well as with a computer-controlled pump which allowed for reagent addition during measurement. Instrument control and data collection was done by PTI's OSCAR software running on an IBM compatible computer. Different concentrations of the test compounds (60 μL in dimethyl sulfoxide) were added to 5.94 mL of assay buffer containing approximately 3×10^6 loaded cells, and 5 μM nitrendipine (in 30 μL EtOH) to block L-type Ca^2+ channels. Samples were incubated for 10 minutes at 30° C. and then aliquoted into three 10×10 mm disposable acrylic cuvettes. Emission signals at 400 and 490 nm were acquired from each cuvette at 30° C. for 50 seconds. At 20 seconds after the start of reading, cells were depolarized by the addition of 160 μL of stimulation solution (1 M KCl, 68 mM CaCl2) to the cuvette via the computer-controlled pump. Ratio of dual emission signals (400 nm/ 490 nm), which is proportional to intracellular Ca^2+ concentration, was plotted against time, and the difference between maximal response after stimulation and basal value (before stimulation) was determined. Values obtained in this way were plotted as a function of drug concentration. IC50 values of test compounds were calculated by fitting a four-parameter logistic function to the data using the least squares method.

[1] = 5 μM nitrendipine, Examples 116-140, read-out: IMR 32% of Blockade @
[2] = K+ depolarization, 5 μM nitrendipine to block L-type channels, read-out: IMR 32 IC50

T1 sequence (Q00975 whole entry): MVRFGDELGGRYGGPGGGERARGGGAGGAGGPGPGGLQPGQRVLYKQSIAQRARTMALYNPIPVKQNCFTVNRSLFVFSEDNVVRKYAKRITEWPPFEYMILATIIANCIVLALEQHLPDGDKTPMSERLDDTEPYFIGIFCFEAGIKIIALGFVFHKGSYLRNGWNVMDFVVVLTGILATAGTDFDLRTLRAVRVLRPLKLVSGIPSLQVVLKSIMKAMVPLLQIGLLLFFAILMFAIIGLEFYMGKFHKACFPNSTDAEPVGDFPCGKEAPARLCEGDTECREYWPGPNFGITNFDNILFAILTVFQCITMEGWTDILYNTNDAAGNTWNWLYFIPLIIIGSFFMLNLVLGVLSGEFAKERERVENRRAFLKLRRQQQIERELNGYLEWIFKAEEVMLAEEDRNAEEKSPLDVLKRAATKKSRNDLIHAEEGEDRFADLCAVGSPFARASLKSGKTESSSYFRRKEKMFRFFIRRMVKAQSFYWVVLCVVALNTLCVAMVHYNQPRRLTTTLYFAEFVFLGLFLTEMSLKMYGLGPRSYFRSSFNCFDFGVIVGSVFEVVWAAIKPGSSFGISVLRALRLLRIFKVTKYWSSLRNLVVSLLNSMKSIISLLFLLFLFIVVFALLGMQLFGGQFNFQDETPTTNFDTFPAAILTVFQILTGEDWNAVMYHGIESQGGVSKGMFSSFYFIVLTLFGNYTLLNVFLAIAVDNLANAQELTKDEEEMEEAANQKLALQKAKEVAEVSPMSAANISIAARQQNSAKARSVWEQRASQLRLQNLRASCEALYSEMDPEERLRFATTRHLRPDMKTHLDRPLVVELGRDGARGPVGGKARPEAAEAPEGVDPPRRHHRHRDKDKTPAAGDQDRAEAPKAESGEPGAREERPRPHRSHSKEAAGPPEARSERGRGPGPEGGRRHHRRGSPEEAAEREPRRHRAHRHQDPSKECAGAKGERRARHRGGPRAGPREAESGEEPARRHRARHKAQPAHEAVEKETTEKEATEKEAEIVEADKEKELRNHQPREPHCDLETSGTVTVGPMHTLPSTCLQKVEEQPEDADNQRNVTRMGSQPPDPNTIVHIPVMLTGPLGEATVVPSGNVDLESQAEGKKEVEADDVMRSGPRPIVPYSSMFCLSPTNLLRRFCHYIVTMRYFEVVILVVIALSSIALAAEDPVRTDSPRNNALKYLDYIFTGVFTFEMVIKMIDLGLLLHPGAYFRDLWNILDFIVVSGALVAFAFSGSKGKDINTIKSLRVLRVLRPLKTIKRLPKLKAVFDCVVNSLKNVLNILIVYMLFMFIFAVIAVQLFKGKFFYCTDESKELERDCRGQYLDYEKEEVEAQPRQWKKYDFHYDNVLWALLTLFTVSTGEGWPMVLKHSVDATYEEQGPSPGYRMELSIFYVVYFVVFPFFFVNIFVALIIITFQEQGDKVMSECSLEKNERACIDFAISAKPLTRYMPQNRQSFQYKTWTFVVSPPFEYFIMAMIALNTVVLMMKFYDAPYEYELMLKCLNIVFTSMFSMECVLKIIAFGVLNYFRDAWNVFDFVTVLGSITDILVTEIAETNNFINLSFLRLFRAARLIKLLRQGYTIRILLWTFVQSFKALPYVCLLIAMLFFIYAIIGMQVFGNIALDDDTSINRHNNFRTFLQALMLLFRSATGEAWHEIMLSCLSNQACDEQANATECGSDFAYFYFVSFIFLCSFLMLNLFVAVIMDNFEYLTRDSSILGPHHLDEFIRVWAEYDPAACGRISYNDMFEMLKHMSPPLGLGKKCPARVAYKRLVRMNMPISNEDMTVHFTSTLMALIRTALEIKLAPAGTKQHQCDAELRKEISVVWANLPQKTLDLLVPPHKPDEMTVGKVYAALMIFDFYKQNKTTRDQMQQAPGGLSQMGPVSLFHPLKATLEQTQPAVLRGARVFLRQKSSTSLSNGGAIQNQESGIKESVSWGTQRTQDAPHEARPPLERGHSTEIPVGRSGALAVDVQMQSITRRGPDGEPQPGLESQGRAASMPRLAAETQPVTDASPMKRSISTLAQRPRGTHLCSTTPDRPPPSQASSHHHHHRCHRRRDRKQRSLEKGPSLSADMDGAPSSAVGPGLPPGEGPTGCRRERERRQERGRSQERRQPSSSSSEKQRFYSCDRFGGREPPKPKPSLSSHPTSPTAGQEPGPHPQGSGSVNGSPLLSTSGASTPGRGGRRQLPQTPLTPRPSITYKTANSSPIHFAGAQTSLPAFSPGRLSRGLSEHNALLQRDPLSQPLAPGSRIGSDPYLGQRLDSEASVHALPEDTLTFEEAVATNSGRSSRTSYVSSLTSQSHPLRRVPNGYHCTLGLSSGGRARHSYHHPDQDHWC
T1 sequence (P54284 whole entry partner): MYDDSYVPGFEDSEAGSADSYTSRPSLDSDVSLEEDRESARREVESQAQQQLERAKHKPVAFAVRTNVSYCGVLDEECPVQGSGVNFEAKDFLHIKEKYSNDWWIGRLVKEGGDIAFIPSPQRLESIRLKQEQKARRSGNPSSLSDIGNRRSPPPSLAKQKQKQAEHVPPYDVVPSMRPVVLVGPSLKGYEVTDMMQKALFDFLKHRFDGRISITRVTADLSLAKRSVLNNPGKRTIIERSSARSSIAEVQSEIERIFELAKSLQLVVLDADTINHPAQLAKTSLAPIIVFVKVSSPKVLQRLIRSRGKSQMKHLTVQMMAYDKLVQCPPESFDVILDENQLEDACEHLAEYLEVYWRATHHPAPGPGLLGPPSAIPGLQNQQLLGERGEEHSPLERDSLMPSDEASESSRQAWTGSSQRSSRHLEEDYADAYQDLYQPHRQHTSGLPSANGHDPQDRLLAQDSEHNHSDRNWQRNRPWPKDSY
T1 sequence (P54289 25-946 partner limits assumed): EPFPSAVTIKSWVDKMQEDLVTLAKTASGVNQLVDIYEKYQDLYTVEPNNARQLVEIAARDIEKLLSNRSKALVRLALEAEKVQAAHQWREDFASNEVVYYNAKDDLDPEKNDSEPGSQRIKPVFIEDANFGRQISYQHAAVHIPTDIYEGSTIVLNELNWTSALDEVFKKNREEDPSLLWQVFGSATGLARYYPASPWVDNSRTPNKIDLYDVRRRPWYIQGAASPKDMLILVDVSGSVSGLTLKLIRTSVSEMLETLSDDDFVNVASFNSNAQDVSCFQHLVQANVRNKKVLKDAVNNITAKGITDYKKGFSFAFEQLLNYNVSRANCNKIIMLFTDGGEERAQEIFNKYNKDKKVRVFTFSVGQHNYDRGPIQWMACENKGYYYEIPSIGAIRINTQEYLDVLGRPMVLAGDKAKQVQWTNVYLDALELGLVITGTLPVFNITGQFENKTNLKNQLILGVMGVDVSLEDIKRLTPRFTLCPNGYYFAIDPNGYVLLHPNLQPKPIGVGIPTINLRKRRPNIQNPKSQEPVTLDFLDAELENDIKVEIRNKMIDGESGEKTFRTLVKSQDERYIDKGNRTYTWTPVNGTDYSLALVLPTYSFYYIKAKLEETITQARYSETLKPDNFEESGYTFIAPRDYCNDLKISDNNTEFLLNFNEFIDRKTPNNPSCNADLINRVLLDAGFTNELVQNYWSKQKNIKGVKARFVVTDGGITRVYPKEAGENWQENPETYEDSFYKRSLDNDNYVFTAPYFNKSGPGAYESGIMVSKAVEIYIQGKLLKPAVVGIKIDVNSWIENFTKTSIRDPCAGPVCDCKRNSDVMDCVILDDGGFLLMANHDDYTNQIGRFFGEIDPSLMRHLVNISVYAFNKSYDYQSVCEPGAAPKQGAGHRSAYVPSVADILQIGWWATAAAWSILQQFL
T1 sequence (P54289 947-1103 partner limits assumed): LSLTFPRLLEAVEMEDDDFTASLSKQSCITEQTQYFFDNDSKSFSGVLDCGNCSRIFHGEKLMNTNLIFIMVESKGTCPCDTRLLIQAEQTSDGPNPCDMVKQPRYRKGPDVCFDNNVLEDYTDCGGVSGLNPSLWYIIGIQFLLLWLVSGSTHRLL

Row | Structure (SMILES) | IC50 [1] [nM] | IC50 [2] [nM] | also measured
1 | CC(C)C[C@@H](C(=O)N[C@@H](Cc1ccc(OCc2ccccc2)cc1)C(=O)NCCCn1ccnc1)N(C)C (relative stereo) [Example 134, [S-(R*,R*)]-2-Dimethylamino-4-methyl-pentanoic acid [2-(4-benzyloxy-phenyl)-1-(3-imidazol-1-yl-propylcarbamoyl)-ethyl]-amide] | 1600 | – | –
2 | CC(C)C[C@@H](C(=O)N[C@@H](Cc1ccc(OCc2ccccc2)cc1)C(=O)N1CCN(C)CC1)N(C)C1CCCCC1 (relative stereo) [Example 24, [S-(R*,R*)]-2-(Cyclohexyl-methyl-amino)4-methyl-pentanoic acid [1-(4-benzyloxy-benzyl)-2-(4-methyl-piperazin-1-yl)-2-oxo-ethyl]-amide] | – | – | IMR 32 % of Blockade @ 1 μM (5 μM nitrendipine): 32%; IMR 32 % of Blockade @ 10 μM (5 μM nitrendipine): 84%
3 | CC(C)=CCN[C@@H](CC(C)C)C(=O)N[C@@H](Cc1ccc(OCc2ccccc2)cc1)C(=O)N1CCN(Cc2ccccc2)CC1 (relative stereo) [Example 53, [S-(R*,R*)]-4-Methyl-2-(3-methyl-but-2-enylamino)-pentanoic acid [1-(4-benzyloxy-benzyl)-2-(4-benzyl-piperazin-1-yl)-2-oxo-ethyl]-amide] | – | 700 | –
4 | CC(C)CCN(C)[C@@H](CC(C)C)C(=O)N[C@@H](Cc1ccc(OCc2ccccc2)cc1)C(=O)NCCCN1CCCC1=O (relative stereo) [Example 118, [S-(R*,R*)]-4-Methyl-2-[methyl-(3-methyl-butyl)-amino]-pentanoic acid {2-(4-benzyloxy-phenyl)-1-[3-(2-oxo-pyrrolidin-1-yl)-propylcarbamoyl]-ethyl}-amide] | 1900 | – | –
5 | CC(C)CC(NCc1ccc(C(C)(C)C)cc1)C(=O)NC(Cc1ccc(OCc2ccccc2)cc1)C(=O)NC(C)(C)C (stereo not drawn) [Example 50, [S-(R*,R*)]-2-(4-tert-Butyl-benzylamino)-4-methyl-pentanoic acid [2-(4-benzyloxy-phenyl)-1-tert-butylcarbamoyl-ethyl]-amide] | – | 420 | –
6 | CN[C@@H](CC(C)C)C(=O)N[C@@H](Cc1ccc(OCc2ccccc2)cc1)C(=O)NC(C)(C)C (relative stereo) [Example 35, [S-(R*,R*)]-4-Methyl-2-methylamino-pentanoic acid [2-(4-benzyloxy-phenyl)-1-tert-butylcarbamoyl-ethyl]-amide] | – | 2300 | –
7 | CC(C)C[C@@H](C(=O)N[C@@H](Cc1ccc(OCc2ccccc2)cc1)C(=O)NCCN1CCOCC1)N(C)C (relative stereo) [Example 132, [S-(R*,R*)]-2-Dimethylamino-4-methyl-pentanoic acid [2-(4-benzyloxy-phenyl)-1-(2-morpholin-4-yl-ethylcarbamoyl)-ethyl]-amide] | 12000 | – | –
8 | CC(C)C[C@@H](C(=O)N[C@@H](Cc1ccc(OCc2ccccc2)cc1)C(=O)NCCN1CCCC1)N(C)C (relative stereo) [Example 139, [S-(R*,R*)]-2-Dimethylamino-4-methyl-pentanoic acid [2-(4-benzyloxy-phenyl)-1-(2-pyrrolidin-1-yl-ethylcarbamoyl)-ethyl]-amide] | 38800 | – | –
9 | CC(C)C[C@@H](C(=O)N[C@@H](Cc1ccc(OCc2ccccc2)cc1)C(=O)NCCNCc1ccccc1)N1CCOCC1 (relative stereo) [Example 68, [S-(R*,R*)]-4-Methyl-2-morpholin4-yl-pentanoic acid [1-(2-benzylamino-ethylcarbamoyl)-2-(4-benzyloxy-phenyl)-ethyl]-amide] | – | 1100 | –
10 | CC(C)CCN(C)[C@@H](CC(C)C)C(=O)N[C@@H](Cc1ccc(OCc2ccccc2)cc1)C(=O)NCCN1CCCCC1 (relative stereo) [Example 9, [S-(R*,R*)]-4-Methyl-2-[methyl-(3-methyl-butyl)-amino]-pentanoic acid [2-(4-benzyloxy-phenyl)-1-(2-piperidin-1-yl-ethylcarbamoyl)-ethyl]-amide] | – | – | IMR 32 % of Blockade @ 1 μM (5 μM nitrendipine): 60%; IMR 32 % of Blockade @ 10 μM (5 μM nitrendipine): 89%
11 | CC(C)C[C@H](NCC1CCCCC1)C(=O)N[C@@H](Cc1ccc(OCc2ccccc2)cc1)C(=O)OC(C)(C)C (relative stereo) [Example 91, [S-(R*,R*)]-3-(4Benzyloxy-phenyl)-2-[2-(cyclohexylmethyl-amino)-4-methyl-pentanoylamino]-propionic acid tert-butyl ester] | – | 300 | –
12 | CCC(COC)NC(=O)[C@H](Cc1ccc(OCc2ccccc2)cc1)NC(=O)[C@H](CC(C)C)N(C)C (relative stereo) [Example 138, [S-(R*,R*)]-2-Dimethylamino-4-methyl-pentanoic acid [2-(4-benzyloxy-phenyl)-1-(1-methoxymethyl-propylcarbamoyl)-ethyl]-amide] | 3000 | – | –
13 | CC(C)C[C@@H](C(=O)N[C@@H](Cc1ccc(OCc2ccccc2)cc1)C(=O)N1CCN(Cc2ccccc2)CC1)N(C)C (relative stereo) [Example 4, [S-(R*,R*)]-2-Dimethylamino-4-methyl-pentanoic acid [1-(4-benzyloxy-benzyl)-2-(4-benzyl-piperazin-1-yl)-2-oxo-ethyl]-amide] | – | – | IMR 32 % of Blockade @ 1 μM (5 μM nitrendipine): 50%; IMR 32 % of Blockade @ 10 μM (5 μM nitrendipine): 94%
14 | CC(C)CC(C(=O)NC(Cc1ccc(OCc2ccccc2)cc1)C(=O)N1CCCCC1)N1CCOCC1 (stereo not drawn) [Example 70, [S-(R*,R*)]-4-Methyl-2-morpholin-4-yl-pentanoic acid [1-(4-benzyloxy-benzyl)-2-oxo-2-piperidin-1-yl-ethyl]-amide] | – | 2300 | –
15 | CC(C)C[C@H](NCc1ccc(C(C)(C)C)cc1)C(=O)N[C@@H](Cc1ccc(OCc2ccccc2)cc1)C(=O)N1CCN(Cc2ccccc2)CC1 (relative stereo) [Example 52, [S-(R*,R*)]-2-(4-tert-Butyl-benzylamino)-4-methyl-pentanoic acid [1-(4-benzyloxy-benzyl)-2-(4-benzyl-piperazin-1-yl)-2-oxo-ethyl]-amide] | – | 770 | –
16 | CC(C)CCN(C)[C@@H](CC(C)C)C(=O)N[C@@H](Cc1ccc(OCc2ccccc2)cc1)C(=O)NCCN1CCCC1 (relative stereo) [Example 64, [S-(R*,R*)]-4-Methyl-2-[methyl-(3-methyl-butyl)-amino]-pentanoic acid [2-(4-benzyloxy-phenyl)-1-(2-pyrrolidin-1-yl-ethylcarbamoyl)-ethyl]-amide] | – | 2400 | –
17 | CC(C)C[C@H](NC1CCOCC1)C(=O)N[C@@H](Cc1ccc(OCc2ccccc2)cc1)C(=O)N1CCSCC1 (relative stereo) [Example 72, [S-(R*,R*)]-4-Methyl-2-(tetrahydro-pyran-4-ylamino)-pentanoic acid [1-(4-benzyloxy-benzyl)-2-oxo-2-thiomorpholin-4-yl-ethyl]-amide] | – | 1200 | –
18 | CC(C)CC(C(=O)NC(Cc1ccc(OCc2ccccc2)cc1)C(=O)NCCNCCO)N(C)C (stereo not drawn) [Example 140, [S-(R*,R*)]-2-Dimethylamino-4-methyl-pentanoic acid {2-(4-benzyloxy-phenyl)-1-[2-(2-hydroxy-ethylamino)-ethylcarbamoyl]-ethyl}-amide] | 5100 | – | –
19 | CCC(CO)(CO)NC(=O)[C@H](Cc1ccc(OCc2ccccc2)cc1)NC(=O)[C@H](CC(C)C)N1CCOCC1 (relative stereo) [Example 124, [S-(R*,R*)]-4-Methyl-2-morpholin-4-yl-pentanoic acid [2-(4-benzyloxy-phenyl)-1-(1,1-bis-hydroxymethyl-propyl-carbamoyl)-ethyl]-amide] | 7200 | – | –
20 | CCN(CCC(C)C)C(CC(C)C)C(=O)NC(Cc1ccc(OCc2ccccc2)cc1)C(=O)NC(C)(C)C (stereo not drawn) [Example 45, [S-(R*,R*)]-4Methyl-2-[ethyl-(3-methyl-butyl)-amino]-pentanoic acid [2-(4-benzyloxy-phenyl)-1-tert-butylcarbamoyl-ethyl]-amide] | – | – | IMR 32 % of Blockade @ 0.3 μM (0.3 μM, 5 μM nitrendipine): 45%; IMR 32 % of Blockade @ 3 μM (3 μM, 5 μM nitrendipine): 77%
21 | CC(C)C[C@@H](C(=O)N[C@@H](Cc1ccc(OCc2ccccc2)cc1)C(=O)NC(C)(C)C)N(C)Cc1ccc[nH]1 (relative stereo) [Example 89, [S-(R*,R*)]-4-Methyl-2-[methyl-(1H-pyrrol-2-ylmethyl)-amino]-pentanoic acid [2-(4-benzyloxy-phenyl)-1-tert-butylcarbamoyl-ethyl]-amide] | – | 1000 | –

Reference: US6117841A, “Substituted peptidylamine calcium channel blockers” (Warner-Lambert Company, priority 1999, dated 2000)
